Measurements: the NIST ThermoML archive (doi:10.1021/je049776w)

Test: xn = mol fraction of the nth substance listed
Details: 101.3 kPa, Liquid

Cc1ccc(C)cc1 [1,4-dimethylbenzene] + CCCCCCC
Details | mass density [kg/m3] | viscosity [mPa·s]
298.15 K, x1 = 0.0948 | 694.32 | 0.4074
298.15 K, x1 = 0.1911 | 709.39 | 0.4176
298.15 K, x1 = 0.288 | 725.04 | 0.4295
298.15 K, x1 = 0.3865 | 741.5 | 0.4436
298.15 K, x1 = 0.4856 | 758.54 | 0.4598
298.15 K, x1 = 0.5861 | 776.51 | 0.4807
298.15 K, x1 = 0.6877 | 795.16 | 0.5047
298.15 K, x1 = 0.7906 | 814.74 | 0.5331
298.15 K, x1 = 0.8949 | 835.24 | 0.5714
298.15 K, x1 = 1 | 856.7 | 0.6162
303.15 K, x1 = 0.0948 | 690.05 | 0.382
303.15 K, x1 = 0.1911 | 705.12 | 0.3912
303.15 K, x1 = 0.288 | 720.75 | 0.4019
303.15 K, x1 = 0.3865 | 737.2 | 0.4154
303.15 K, x1 = 0.4856 | 754.24 | 0.4304
303.15 K, x1 = 0.5861 | 772.19 | 0.4496
303.15 K, x1 = 0.6877 | 790.83 | 0.4716
303.15 K, x1 = 0.7906 | 810.42 | 0.4979
303.15 K, x1 = 0.8949 | 830.91 | 0.5308
303.15 K, x1 = 1 | 852.35 | 0.5715
313.15 K, x1 = 0.0948 | 681.45 | 0.344
313.15 K, x1 = 0.1911 | 696.52 | 0.3523
313.15 K, x1 = 0.288 | 712.12 | 0.3623
313.15 K, x1 = 0.3865 | 728.57 | 0.374
313.15 K, x1 = 0.4856 | 745.57 | 0.3865
313.15 K, x1 = 0.5861 | 763.52 | 0.4034
313.15 K, x1 = 0.6877 | 782.15 | 0.4234
313.15 K, x1 = 0.7906 | 801.71 | 0.444
313.15 K, x1 = 0.8949 | 822.21 | 0.4729
313.15 K, x1 = 1 | 843.64 | 0.508
323.15 K, x1 = 0.0948 | 672.73 | 0.3136
323.15 K, x1 = 0.1911 | 687.79 | 0.3211
323.15 K, x1 = 0.288 | 703.38 | 0.3304
323.15 K, x1 = 0.3865 | 719.83 | 0.3408
323.15 K, x1 = 0.4856 | 736.82 | 0.3529
323.15 K, x1 = 0.5861 | 754.77 | 0.3683
323.15 K, x1 = 0.6877 | 773.41 | 0.3835
323.15 K, x1 = 0.7906 | 792.97 | 0.4041
323.15 K, x1 = 0.8949 | 813.45 | 0.4285
323.15 K, x1 = 1 | 834.9 | 0.4599
333.15 K, x1 = 0.0948 | 663.88 | 0.2848
333.15 K, x1 = 0.1911 | 678.95 | 0.2922
333.15 K, x1 = 0.288 | 694.52 | 0.2997
333.15 K, x1 = 0.3865 | 710.98 | 0.3097
333.15 K, x1 = 0.4856 | 727.97 | 0.3201
333.15 K, x1 = 0.5861 | 745.92 | 0.3345
333.15 K, x1 = 0.6877 | 764.57 | 0.3537
333.15 K, x1 = 0.7906 | 784.15 | 0.3712
333.15 K, x1 = 0.8949 | 804.64 | 0.3973
333.15 K, x1 = 1 | 826.09 | 0.4298
343.15 K, x1 = 0.0948 | 654.83 | 0.2612
343.15 K, x1 = 0.1911 | 669.89 | 0.2658
343.15 K, x1 = 0.288 | 685.48 | 0.273
343.15 K, x1 = 0.3865 | 701.94 | 0.2818
343.15 K, x1 = 0.4856 | 718.94 | 0.2915
343.15 K, x1 = 0.5861 | 736.91 | 0.303
343.15 K, x1 = 0.6877 | 755.57 | 0.3166
343.15 K, x1 = 0.7906 | 775.17 | 0.3317
343.15 K, x1 = 0.8949 | 795.69 | 0.3498
343.15 K, x1 = 1 | 817.17 | 0.3783

Cc1ccc(C)cc1 [1,4-dimethylbenzene] + CN1CCCC1=O
Details | mass density [kg/m3] | viscosity [mPa·s]
303.15 K, x1 = 0.0947 | 1005.71 | 1.359
303.15 K, x1 = 0.1893 | 988.37 | 1.239
303.15 K, x1 = 0.2858 | 971.07 | 1.129
303.15 K, x1 = 0.3838 | 953.82 | 1.02
303.15 K, x1 = 0.483 | 936.56 | 0.9203
303.15 K, x1 = 0.5836 | 919.47 | 0.8327
303.15 K, x1 = 0.6854 | 902.73 | 0.7753
303.15 K, x1 = 0.7888 | 885.85 | 0.7001
303.15 K, x1 = 0.8937 | 869.04 | 0.6291
303.15 K, x1 = 1 | 852.35 | 0.5715
313.15 K, x1 = 0.0947 | 996.79 | 1.173
313.15 K, x1 = 0.1893 | 979.45 | 1.07
313.15 K, x1 = 0.2858 | 962.14 | 0.9754
313.15 K, x1 = 0.3838 | 944.9 | 0.8894
313.15 K, x1 = 0.483 | 927.68 | 0.807
313.15 K, x1 = 0.5836 | 910.56 | 0.7296
313.15 K, x1 = 0.6854 | 893.86 | 0.6862
313.15 K, x1 = 0.7888 | 877.02 | 0.619
313.15 K, x1 = 0.8937 | 860.27 | 0.5579
313.15 K, x1 = 1 | 843.64 | 0.508
323.15 K, x1 = 0.0947 | 987.88 | 1.023
323.15 K, x1 = 0.1893 | 970.53 | 0.9373
323.15 K, x1 = 0.2858 | 953.21 | 0.8571
323.15 K, x1 = 0.3838 | 935.97 | 0.7795
323.15 K, x1 = 0.483 | 918.77 | 0.7084
323.15 K, x1 = 0.5836 | 901.68 | 0.6521
323.15 K, x1 = 0.6854 | 884.99 | 0.6084
323.15 K, x1 = 0.7888 | 868.16 | 0.5517
323.15 K, x1 = 0.8937 | 851.46 | 0.4998
323.15 K, x1 = 1 | 834.9 | 0.4599
333.15 K, x1 = 0.0947 | 978.93 | 0.9019
333.15 K, x1 = 0.1893 | 961.55 | 0.8316
333.15 K, x1 = 0.2858 | 944.23 | 0.7602
333.15 K, x1 = 0.3838 | 926.99 | 0.694
333.15 K, x1 = 0.483 | 909.8 | 0.6321
333.15 K, x1 = 0.5836 | 892.71 | 0.5828
333.15 K, x1 = 0.6854 | 876.03 | 0.5437
333.15 K, x1 = 0.7888 | 859.21 | 0.4947
333.15 K, x1 = 0.8937 | 842.56 | 0.4504
333.15 K, x1 = 1 | 826.09 | 0.4298
343.15 K, x1 = 0.0947 | 969.95 | 0.8009
343.15 K, x1 = 0.1893 | 952.56 | 0.7371
343.15 K, x1 = 0.2858 | 935.23 | 0.681
343.15 K, x1 = 0.3838 | 917.98 | 0.6209
343.15 K, x1 = 0.483 | 900.82 | 0.5686
343.15 K, x1 = 0.5836 | 883.72 | 0.5173
343.15 K, x1 = 0.6854 | 867.04 | 0.4921
343.15 K, x1 = 0.7888 | 850.22 | 0.4476
343.15 K, x1 = 0.8937 | 833.61 | 0.4081
343.15 K, x1 = 1 | 817.17 | 0.3783
353.15 K, x1 = 0.0947 | 960.94 | 0.7219
353.15 K, x1 = 0.1893 | 943.54 | 0.6637
353.15 K, x1 = 0.2858 | 926.19 | 0.6119
353.15 K, x1 = 0.3838 | 908.93 | 0.561
353.15 K, x1 = 0.483 | 891.78 | 0.5127
353.15 K, x1 = 0.5836 | 874.66 | 0.4761
353.15 K, x1 = 0.6854 | 857.97 | 0.4466
353.15 K, x1 = 0.7888 | 841.16 | 0.4072
353.15 K, x1 = 0.8937 | 824.56 | 0.3726
353.15 K, x1 = 1 | 808.22 | 0.3382
